Ends that are not written are not given here.
How the values were obtained:
[1] = system: A549, HT1376, MDA-MB-231, HeLa and BEAS-2B cell lines; experiment: Western blotting of LC3 I and LC3 II for autophagy level; type: cell-based; conditions: chloroquine treated together with rapamycin, 4 hours; all the cells (FIG. 1)
Method: After 4 hours, the cells were washed two times with 1×PBS, followed by a western blotting was carried out to investigate the protein levels of LC3 I and LC3 II (hereinafter referred to as, LC3 I/II). In order to perform the western blotting, the cells were first lysed with RIPA buffer with 1/ml protease inhibitor cocktail in the drug-treated cells. The whole cell extracts were fractionated by SDS-PAGE, and transferred to a nitrocellulose membrane using a dry blot (Bio-Rad). The membranes were incubated with TBST (10 mM Tris, pH 8.0, 150 mM NaCl, 0.5% Tween 20) containing 5% nonfat milk for 60 minutes, then washed once with TBST. The membrane was treated with rabbit antibody against human LC3 I/II (abcam) and stirred overnight at 4° C. The membrane was washed 3 times for 10 min with TBST, then was incubated for 1 hour with the HRP-labeled antibody (mouse anti-rabbit IgG-HRP, Santa Cruz, Inc.) against the rabbit antibody isolated from a mouse as a secondary antibody (1:3000 dilution). After washing three times with TBST and developing according to the protocol of the manufacturer of the ECL system (Amersham Biosciences), an image was detected with a luminescent image analyzer (LAS100 Plus, Fujifilm, Japan).

[2] = system: HeLa cell, Chang cell and BEAS-2B cell; experiment: Detection of autophagy cells in other cell types, fluorescence microscopy; type: cell-based; conditions: rhodamine B labeled, BEAS-2B cells (FIG. 8)
Method: (§1) pEGFP-LC3-transfected MDA-MB-231 cells were cultured on an eight-chamber slide and were treated with EBSS (Earl's balanced salt solution) for 2 hours to induce autophagy. Cells were then washed with PBS and treated with 10 μmol/L of each solution of Rhodamine B-labeled AtgPep-1 to AtgPep-4 (provided in PBS diluted) and incubated at 4° C. for 1 hour. Then 1% BSA was treated at 4° C. for 1 hour. The cells were fixed with 4% paraformaldehyde for 5 minutes. The cells were then stained with […] (DAPI) and mounted on a fluorescence microscope (Zeiss, Oberkochen, Germany).
In order to verify that the peptide of the present invention acts also on other tissues or cells other than the MDA-MB-231 cell line, autophagy was induced in several kinds of cells (derived from different tissues) and their detection ability was confirmed using AtgPep-1 (CKHHLGAIC; SEQ ID NO: 1) and AtgPep-2 (CQQTKNYYC: SEQ ID NO: 2) which represent particularly high signals among AtgPep-1 to AtgPep-4. The experimental method is the same as described above.

[3] = system: pEGFP-LC3-transfected MDA-MB-231 cells treated with EBSS; experiment: Detection of autophagy cells in the early stages of autophagy induction, fluorescence microscopy; type: cell-based; conditions: for fluorescence signal on early autophagy cells: Rhodamine B-labeled peptide 10 μmol/L, 4° C. 1 hour, EBSS 2 hours (FIG. 6); for site of binding on autophagy-induced cells: rhodamine-labeled peptide, single MDA-MB-231 cell (FIGS. 7A and 7B)
Method: as §1

[4] = system: autophagy cells (rapamycin-treated HeLa or MDA-MB-231 cells); experiment: Immunofluorescent staining of phage clones on rapamycin-treated cells; type: cell-based; conditions: phage clones displaying the peptide; rapamycin 4 hr; anti-M13 immunofluorescence (FIG. 4)
Method: A phage clone with high specificity for binding to autophagy cells was selected through phage binding ELISA for autophagy cells. More specifically, For binding of each phage clone in vitro, cells were seeded at 2×10^4 cells/well in a 96-well culture plate and cultured in 80˜90% confluence. And then cells were treated with rapamycin in serum-free medium for 4 hours, then washed with PBS and blocked with 1% BSA for 30 minutes at room temperature. The treated cells were then incubated with each phage clone (1×10^9 pfu/well). The pool of a phage library was used as a control. After 1 hour incubation at 4° C. with a phage clone, the cells were washed again with PBS and fixed with […] (in DMEM). Next, HRP-conjugated anti-M13 phage monoclonal antibody (1:3000 dilution, NEB) was added to M13 phage and incubated at room temperature for one hour. The cells were washed three times with PBS, and the TMB substrate (100/well) was treated for 2-10 min for color development and the reaction was terminated by treatment with 2M H2SO4. The final color product was measured at 450 nm wavelength in microtitration plate reader (Sunrise, Tecan Austria) using a windows based program XFluor4.
Further, after the phage clones selected for the rapamycin-treated cells were cultured as described above, immunofluorescent staining was performed using a mouse monoclonal antibody to M13 phage (mouse anti-M13 monoclonal antibody, diluted 1:3000) and Alexa 549-labeled antibody (Alexa 549-conjugated anti-mouse IgG antibody, abcam) against the mouse antibody as a secondary antibody in a conventional manner to confirm the attachment specificity and effect of the phage clones, and used for screening. […] The four peptide sequences of the clones is as follows; CKHHLGAIC (AtgPep-1, SEQ ID NO: 1), CQQTKNYYC (AtgPep-2, SEQ ID NO: 2), CNTGSPYEC: SEQ ID NO: 3 (AtgPep-3, SEQ ID NO: 3), CPPNTDRSC (AtgPep-4, SEQ ID NO: 4). […] It was confirmed that the phage clones displaying AtgPep-1 to AtgPep-4 specifically bind to autophagy cells respectively. In particular, it was confirmed that the phage clones specifically bind to the autophagy cells even in the initial (4 hr) autophagy state.

[5] = system: MDA-MB-231 tumor tissue after rapamycin autophagy induction; experiment: Microscopy of tumor frozen sections for peptide target signal; type: in vivo, nude mouse; conditions: flamma 675-labeled peptide; five hours after the peptide injection; frozen sections (FIG. 10)
Method: After five hours of the peptide injection, the image were acquired. Then the mice were sacrificed and the tumors were separated and frozen sections of tissues were prepared. Six μm-thickness tumor frozen sections were stained with DAPI for nuclear staining and immunostained with LC3 antibody for autophagy induction. The signal of flamma 675 (FPR675) dye, LC3 and DAPI were observed as red, green and blue under a microscope, respectively.

[6] = system: MDA-MB-231 tumor after rapamycin autophagy induction; experiment: In vivo NIRF imaging of autophagy in tumor animal model; design: species or system nude mouse; conditions: flamma 675-labeled peptide, tail vein, 50 μM; 4 to 5 hours after peptide injection; rapamycin 1.5 mg per kg i.p. (FIG. 9)
Method: As an experiment for monitoring and imaging autophagy using a peptide probe, tumor cells were transplanted into immunodeficient nude mice to grow tumors, and animal models for experiments were constructed. The MDA-MB-231 cell (10^6 cells), which was verified in the results of FIGS. 7A and 7B of the present invention, was injected into the femoral region of the nude mouse, and it was confirmed that the size of the tumor was 80 mm^3 after 10 days. In order to induce autophagy, rapamycin was injected intraperitoneally into each mouse in an amount of 1.5 mg per kg of the mouse. Two hours after the injection of rapamycin, AtgPep-2 (CQQTKNYYC: SEQ ID NO: 2) of the present invention, labeled with flamma 675 (=FPR675, Bioact Co., Korea), a near-infrared fluorescent (NIRF) was administered to each mouse (N=5 To 7) via tail vein at a final 50 μM concentration/mouse, while being allowed to circulate along the blood for 2 hours to obtain optical and fluorescence imaging at 2 hours, 4 hours, and 5 hours after the administration of the peptide. As a control, CNSSSVDKC peptide (Control, SEQ ID NO: 10) labeled with flamma 675 was injected at the same concentration and method. NIRF imaging signals were scanned and acquired using an IVIS imaging system (Caliper Life Sciences, Massachusetts, USA).

CCN(CC)CCCC(C)Nc1ccnc2cc(Cl)ccc12 (centres unmarked) [chloroquine]
production of LC3 II protein [1]: further increased

CKHHLGAIC (Artificial Amino acid sequence of AtgPep-1)
targeting to autophagy cells in other cell types [2]: specifically targeted to autophagy cells regardless of cell types | fluorescence signal on early autophagy cells [3]: strong fluorescence signals | site of binding on autophagy-induced cells [3]: bound to the cell membrane of the autophagy cell | binding specificity of phage clones to autophagy cells [4]: high binding specificity to autophagy cells

CNSSSVDKC (not fully specified; cysteine pairing not given here; also: flamma 675 label) [control peptide labeled with flamma 675, reference compound]
target signal in the tumor tissue [5]: target signal was not present

CNTGSPYEC (Artificial Amino acid sequence of AtgPep-3)
binding specificity of phage clones to autophagy cells [4]: high binding specificity to autophagy cells

CPPNTDRSC (Artificial Amino acid sequence of AtgPep-4)
binding specificity of phage clones to autophagy cells [4]: high binding specificity to autophagy cells

CQQTKNYYC (Artificial Amino acid sequence of AtgPep-2)
targeting to autophagy cells in other cell types [2]: specifically targeted to autophagy cells regardless of cell types | fluorescence signal on early autophagy cells [3]: strong fluorescence signals | site of binding on autophagy-induced cells [3]: bound to the cell membrane of the autophagy cell | binding specificity of phage clones to autophagy cells [4]: high binding specificity to autophagy cells | tumor targeting in NIRF imaging versus control peptide [6]: significantly higher level | target signal in the tumor tissue [5]: significantly higher

Reference: patent US10421780B2, “Peptide for targeting autophagic cells and use thereof” (Kyungpook National University Industry-Academic Cooperation …, priority 2015, dated 2019)
